We go through 28 molecules from ChEMBL document CHEMBL3046648, “Herbicidally Active N-(1-Arylethenyl)-2-chloroacetamides Bearing an Alkyloxyalkyl Moiety” (1991).

Holding throughout (format): functional
Assay [1] in a line: Herbicidal activity against annual broad-leaf weeds assessed as killing at 1 g/a at 25 degC measured after 3 weeks.
Assay [2] in a line: Herbicidal activity against annual broad-leaf weeds assessed as killing at 10 g/a at 25 degC measured after 3 weeks.
The subject of assay [3] is Pontederia vaginalis. The assay is described as follows: Herbicidal activity against Monochoria vaginalis assessed as killing at 1 g/a at 25 degC measured after 3 weeks.
Assay [4] has as its system Pontederia vaginalis. The assay can be described thus: Herbicidal activity against Monochoria vaginalis assessed as killing at 10 g/a at 25 degC measured after 3 weeks.
The subject of assay [5] is Schoenoplectiella juncoides. The assay can be described thus: Herbicidal activity against Schoenoplectiella juncoides assessed as killing at 1 g/a at 25 degC measured after 3 weeks.
The test system of assay [6] is Schoenoplectiella juncoides. The assay is described as follows: Herbicidal activity against Schoenoplectiella juncoides assessed as killing at 10 g/a at 25 degC measured after 3 weeks.
Assay [7] relates to Cyperus difformis. The assay is described as follows: Herbicidal activity against Cyperus difformis assessed as killing at 1 g/a at 25 degC measured after 3 weeks.
In assay [8] the test system is Cyperus difformis. The assay can be described thus: Herbicidal activity against Cyperus difformis assessed as killing at 10 g/a at 25 degC measured after 3 weeks.
The test system of assay [9] is Echinochloa oryzicola. The assay is described as follows: Herbicidal activity against Echinochloa oryzicola assessed as killing at 1 g/a at 25 degC measured after 3 weeks.
In assay [10] the test system is Echinochloa oryzicola. The assay is described as follows: Herbicidal activity against Echinochloa oryzicola assessed as killing at 10 g/a at 25 degC measured after 3 weeks.

For `C#CCOCCN(C(=O)CCl)C(=C(C)C)c1ccccc1`, the Activity in [1] worked out at 100%; in assay [2] it was 100%; in the assay on Pontederia vaginalis [3] it was 100%; in the assay on Pontederia vaginalis [4], 100%; in [5], 80%; in assay [6], 100%. Besides, the Activity in the assay with Cyperus difformis [7], in the assay with Cyperus difformis [8], in the assay on Echinochloa oryzicola [9] and in the assay with Echinochloa oryzicola [10] was 100% in each case.
With `COCCN(C(=O)CCl)C(=C(C)C)c1cccc(Oc2ccccc2)c1`, the Activity in [1] stood at 40%; in assay [2], 100%; in the assay on Pontederia vaginalis [3], 0%; in the assay with Pontederia vaginalis [4] it was 100%; in assay [5], 60%; in [6], 60%. Moreover, the Activity with Cyperus difformis [7] is recorded as 80%; in the assay on Cyperus difformis [8], 100%; in the assay with Echinochloa oryzicola [9], 100%; with Echinochloa oryzicola [10], 100%.
Consider `COCCN(C(=O)CCl)C(=C(C)C)c1ccccc1Cl`, for which the Activity in assay [1] was found to be 0%; in assay [2] it was 100%; in the assay on Pontederia vaginalis [3] it was 0%; with Pontederia vaginalis [4] it was 100%; in [5] it was 80%; in assay [6], 100%. Besides, the Activity in the assay with Cyperus difformis [7] was determined as 100%; in the assay on Cyperus difformis [8], 100%; in the assay on Echinochloa oryzicola [9], 80%; with Echinochloa oryzicola [10], 100%.
Regarding `COCCN(C(=O)CCl)C(=C(C)C)c1ccccc1C`, the Activity in assay [1] was determined as 80%; in [2] it was 80%; in the assay with Pontederia vaginalis [3], 0%; in the assay on Pontederia vaginalis [4] it was 80%; in assay [5] it was 0%; in [6] it was 100%. The Activity with Cyperus difformis [7] was determined as 80%; in the assay on Cyperus difformis [8], 100%; with Echinochloa oryzicola [9] it was 80%; with Echinochloa oryzicola [10], 100%.
As for `CCCCC=C(c1ccccc1)N(CCOC)C(=O)CCl`, the Activity in assay [2] came out at 80%; in the assay on Pontederia vaginalis [4], 100%; in assay [6] it was 100%; in the assay with Cyperus difformis [8] it was 80%; in the assay on Echinochloa oryzicola [10] it was 80%.
As to `COCCN(C(=O)CCl)C(=C(C)C)c1ccco1`, the Activity in [2] is 100%; in the assay on Pontederia vaginalis [3], 0%; in the assay on Pontederia vaginalis [4], 100%; in [5], 40%; in assay [6] it was 100%; in the assay on Cyperus difformis [7], 20%. The Activity with Cyperus difformis [8], with Echinochloa oryzicola [9] and in the assay with Echinochloa oryzicola [10] was 100% throughout.
As for `COCCN(C(=O)CCl)C(=C(C)C)c1ccc(C)o1`, the Activity (in assay [2]; with Pontederia vaginalis [4]; in assay [6]; with Cyperus difformis [8]; with Echinochloa oryzicola [10]) was 100% in each case.
On to `CCCCCOCCN(C(=O)CCl)C(=C(C)C)c1ccccc1`, for which the Activity in assay [2] stood at 80%; in the assay on Pontederia vaginalis [4], 0%; in assay [6] it was 60%; in the assay with Cyperus difformis [8], 80%; with Echinochloa oryzicola [10] it was 80%.
As for `COCCN(C(=O)CCl)C(=C(C)C)c1ccc(Br)s1`, the Activity in [1] was determined as 80%; in [2], 100%; in the assay with Pontederia vaginalis [3] it was 60%; in the assay with Pontederia vaginalis [4], 100%; in [5], 60%; in assay [6], 100%. For the same molecule, the Activity is given as 80% in the assay on Cyperus difformis [7], 100% in the assay on Cyperus difformis [8], 100% with Echinochloa oryzicola [9] and 100% in the assay with Echinochloa oryzicola [10].
With `CSCCN(C(=O)CCl)C(=C(C)C)c1ccccc1`, the Activity in assay [2] amounted to 0%; in the assay with Pontederia vaginalis [4], 0%; in [6], 20%; in the assay with Cyperus difformis [8] it was 0%; in the assay on Echinochloa oryzicola [10] it was 60%.
Regarding `CCCOCCN(C(=O)CCl)C(=C(C)C)c1ccccc1`, the Activity is 100% in [2]; 100% with Pontederia vaginalis [3]; 100% in the assay with Pontederia vaginalis [4]; 80% in assay [5]; 100% in assay [6]; 100% in the assay on Cyperus difformis [7]. In addition, the Activity in the assay with Cyperus difformis [8], in the assay with Echinochloa oryzicola [9] and with Echinochloa oryzicola [10] was 100% in each case.
For the molecule `COCCN(C(=O)CCl)C(=C(C)C)c1cc(C(C)C)ccc1C`, the Activity was found to be 100% in [2]; 0% in the assay on Pontederia vaginalis [3]; 100% with Pontederia vaginalis [4]; 0% in assay [5]; 100% in assay [6]; 0% in the assay with Cyperus difformis [7]. Moreover, the Activity with Cyperus difformis [8] is listed as 100%; with Echinochloa oryzicola [9], 60%; in the assay on Echinochloa oryzicola [10], 100%.
As for `CC(C)=C(c1ccccc1)N(CCOCC(F)(F)F)C(=O)CCl`, the Activity in [2] came out at 60%; in the assay on Pontederia vaginalis [4] it was 60%; in assay [6], 80%; in the assay with Cyperus difformis [8], 100%; in the assay with Echinochloa oryzicola [10], 100%.
In the case of `COC(=O)C(C)N(C(=O)CCl)C(=C(C)C)c1ccccc1` (centres undefined), the Activity in [2] stood at 80%; in the assay on Pontederia vaginalis [4], 80%; in [6] it was 100%; in the assay with Cyperus difformis [8], 80%; in the assay with Echinochloa oryzicola [10] it was 100%.
In the case of `CCOC(=O)C(CC)N(C(=O)CCl)C(=C(C)C)c1ccccc1` (centres undefined), the Activity amounted to 80% in [2]; 40% in the assay with Pontederia vaginalis [4]; 60% in assay [6]; 40% with Cyperus difformis [8]; 80% in the assay with Echinochloa oryzicola [10].
For `C=C(c1ccccc1)N(CCOC)C(=O)CCl`, the Activity in assay [2] is 80%; in the assay with Pontederia vaginalis [4], 40%; in assay [6], 60%; with Cyperus difformis [8] it was 80%; in the assay on Echinochloa oryzicola [10], 100%.
For `COC=C(c1ccccc1)N(CCOC)C(=O)CCl`, the Activity in assay [2] is 0%; in the assay with Pontederia vaginalis [4], 0%; in assay [6] it was 40%; with Cyperus difformis [8] it was 60%; in the assay with Echinochloa oryzicola [10], 100%.
With `COCCN(C(=O)CCl)C(=C(C)C)c1ccccc1OC`, the Activity in [1] was 0%; in the assay on Pontederia vaginalis [3], 0%; in the assay on Pontederia vaginalis [4], 100%; in assay [5] it was 0%; in assay [6], 100%; in the assay with Cyperus difformis [7] it was 0%. Also, the Activity in the assay with Cyperus difformis [8] was found to be 80%; in the assay on Echinochloa oryzicola [9] it was 0%; in the assay on Echinochloa oryzicola [10], 100%.
`CCOC(CN(C(=O)CCl)C(=C(C)C)c1ccccc1)OCC`: the Activity in [2] came out at 100%; with Pontederia vaginalis [3], 0%; in the assay with Pontederia vaginalis [4], 100%; in [5], 0%; in assay [6], 100%; in the assay on Cyperus difformis [7], 40%. For the same molecule, the Activity is on record as 100% in the assay with Cyperus difformis [8], 0% in the assay on Echinochloa oryzicola [9] and 100% in the assay with Echinochloa oryzicola [10].
On to `CCOC(=O)C(C)N(C(=O)CCl)C(=C(C)C)c1ccccc1` (centres undefined), for which the Activity (in assay [2]; in the assay with Pontederia vaginalis [4]; in assay [6]; in the assay with Cyperus difformis [8]; in the assay on Echinochloa oryzicola [10]) was 100% in each case.
For `CC(C)=C(c1ccccc1)N(CCCOC(C)C)C(=O)CCl`, the Activity (in [2]; in the assay with Pontederia vaginalis [4]; in assay [6]; in the assay on Cyperus difformis [8]; in the assay with Echinochloa oryzicola [10]) was 100% throughout.
For `CCOC(=O)CN(C(=O)CCl)C(=C(C)C)c1ccccc1`, the Activity in assay [2] stood at 80%; in the assay with Pontederia vaginalis [4], 40%; in [6], 40%; in the assay on Cyperus difformis [8], 80%; in the assay with Echinochloa oryzicola [10], 100%.
On to `C/C=C/COCCN(C(=O)CCl)C(=C(C)C)c1ccccc1`, for which the Activity in assay [2] was found to be 80%; with Pontederia vaginalis [4], 100%; in assay [6], 100%; in the assay on Cyperus difformis [8], 100%; with Echinochloa oryzicola [10] it was 100%.
`CC(C)=C(c1ccccc1)N(CCOC/C=C/c1ccccc1)C(=O)CCl`: the Activity in [2] was found to be 0%; in the assay with Pontederia vaginalis [4] it was 0%; in assay [6] it was 40%; with Cyperus difformis [8], 0%; in the assay on Echinochloa oryzicola [10], 20%.
With `COCCN(C(=O)CCl)C(=C(C)C)c1ccc(OC)c(OC)c1`, the Activity came out at 100% in assay [2]; 60% in the assay with Pontederia vaginalis [3]; 100% in the assay on Pontederia vaginalis [4]; 60% in assay [5]; 100% in [6]; 80% in the assay with Cyperus difformis [7]. Moreover, the Activity with Cyperus difformis [8] stood at 100%; in the assay on Echinochloa oryzicola [9] it was 80%; in the assay with Echinochloa oryzicola [10], 100%.
On to `COCCN(C(=O)CCl)C(=C(C)C)c1cccc(Oc2ccc(Cl)cc2)c1`, for which the Activity in [2] was 100%; with Pontederia vaginalis [4] it was 100%; in assay [6], 80%; in the assay on Cyperus difformis [8], 100%; in the assay with Echinochloa oryzicola [10], 100%.
Consider `CCCCOCN(C(=O)CCl)c1c(CC)cccc1CC` [BUTACHLOR], for which the Activity (in [2]; in the assay on Pontederia vaginalis [4]; in assay [6]; in the assay with Cyperus difformis [8]; in the assay with Echinochloa oryzicola [10]) was 100% in each case.
`COCCN(C(=O)CCl)C(=C(C)C)c1cccc2ccccc12`: the Activity was determined as 60% in assay [2]; 60% in the assay on Pontederia vaginalis [4]; 60% in [6]; 80% with Cyperus difformis [8]; 100% with Echinochloa oryzicola [10].
